Converted amounts (≈) assume the structure as drawn.
Legend:
Format in all cases: cell-based
E. coli (ATCC25922) = assay: susceptibility test with respect to ampicillin by microscopic observation (bacteriological test apparatus)
Experimental: After the bacterial suspension is introduced into the culture plate 18, the bacterial suspension is in a state of being mixed with the culture liquid which is included in each of the wells, and the temperature controller 16 is set to a temperature of approximately 35° C. Culture is performed by performing incubation such that the temperature of each of the wells in the culture plate 18 is in the vicinity of the set temperature. Then, while performing the incubation, the bacteria included in each of the wells are monitored through the microscopic observation optical system. The microscopic observation (monitoring) may be performed for a set period of time from the start of the incubation till the end thereof by continuously monitoring the state of bacterial growth. Otherwise, a suitable time may be set and monitoring is performed every set time thereof so as to be able to be compared with the monitored result at the time of starting the incubation. In addition, similar to the bacteriological test apparatus in the related art, the turbidity of each of the wells may be measured through the turbidity measurement optical system while incubating the culture plate 18. The measured result may be compared with the monitored result of the microscopic observation optical system. FIGS. 16A to 18C are diagrams illustrating results of a susceptibility test with respect to ampicillin of E. coli (ATCC25922) performed by using the bacteriological test apparatus of the present invention. FIGS. 16A to 18C are images obtained by culturing the E. coli in Mueller-Hinton culture mediums respectively containing ampicillin having the concentrations of 0 μg/mL, 2 μg/mL, and 16 μg/mL, performing image processing of a line extracting filter and the like onto microscopic images respectively captured after (a) 0 hours, (b) 3 hours, and (c) 24 hours from the start of culture, and performing binarization. The target objects appearing black in FIGS. 16A to 18C are the E. coli. […] FIG. 19 is a graph obtained by calculating the areas of the E. coli in the images of FIGS. 16A to 18C and plotting the areas thereof periodically. […] In this manner, it was possible to obtain the MIC with respect to the ampicillin of the used E. coli based on the graph achieved by monitoring the change in the areas of the bacteria in the images. It could be confirmed that the antimicrobial susceptibility test which requires overnight culture in the related art could be carried out in a short time by using the bacteriological test apparatus of the present invention.

E coli (ATCC35218) = assay: susceptibility test of E coli treated with cefazolin by microscopic observation (bacteriological test apparatus); conditions: for growth of the E coli in images / bacterial number in a microscopic image: after three hours; for bacterial number in a microscopic image: FIG. 22A; for average value of the areas per one bacterium: FIG. 22C
Experimental: After the bacterial suspension is introduced into the culture plate 18, the bacterial suspension is in a state of being mixed with the culture liquid which is included in each of the wells, and the temperature controller 16 is set to a temperature of approximately 35° C. Culture is performed by performing incubation such that the temperature of each of the wells in the culture plate 18 is in the vicinity of the set temperature. Then, while performing the incubation, the bacteria included in each of the wells are monitored through the microscopic observation optical system. The microscopic observation (monitoring) may be performed for a set period of time from the start of the incubation till the end thereof by continuously monitoring the state of bacterial growth. Otherwise, a suitable time may be set and monitoring is performed every set time thereof so as to be able to be compared with the monitored result at the time of starting the incubation. In addition, similar to the bacteriological test apparatus in the related art, the turbidity of each of the wells may be measured through the turbidity measurement optical system while incubating the culture plate 18. The measured result may be compared with the monitored result of the microscopic observation optical system. FIGS. 20A-20D and 21A-21D are diagrams illustrating results of a susceptibility test of E coli (ATCC35218) treated with cefazolin performed by using the bacteriological test apparatus of the present invention. FIGS. 20A to 20D are microscopic images which are obtained by culturing the E. coli in Mueller-Hinton culture mediums respectively containing cefazolin having concentrations of 0 μg/mL, 0.5 μg/mL, 1 μg/mL, and 2 μg/mL, and captured after three hours from the start of culture. The target objects vaguely appearing in the images are the bacteria. FIGS. 21A to 21D are images obtained by respectively performing image processing onto the images of FIGS. […], performing edge detection, and performing binarization thereafter. The target objects appearing black in FIGS. 21A-21D are the E. coli. […] FIGS. 22A-22F are graphs obtained by extracting the feature values of the bacteria from the image of FIGS. 20A-20D. FIG. 22A is a graph illustrating the bacterial number in a microscopic image. […] FIG. 22B is a graph illustrating the areas of the bacteria in the microscopic image. FIG. 22C is a graph illustrating the average values of the areas per one bacterium obtained based on FIGS. 22A and 22B. […] As it also could be confirmed in FIGS. 21A-21D, the facts thereof indicate that the bacteria are elongated due to effect of cefazolin. FIGS. 22D to 22F are graphs respectively showing the perimeter length, the circularity, and the solidity (an index showing how the shape is close to a circle) per one bacterium. As the results of the elongated bacteria, it could be confirmed that the perimeter length increased in FIG. 22D, the circularity defined through […] was lowered in FIG. 22E, and the solidity defined through the area/the projection area is lowered in FIG. 22F.

[1] = test system: Enterococcus faecalis (ATCC29212); assay: susceptibility test with respect to levofloxacin by microscopic observation (bacteriological test apparatus); conditions: Mueller-Hinton culture medium, from areas of bacteria in images over time, read-out: minimum inhibitory concentration (MIC)
Experimental: After the bacterial suspension is introduced into the culture plate 18, the bacterial suspension is in a state of being mixed with the culture liquid which is included in each of the wells, and the temperature controller 16 is set to a temperature of approximately 35° C. Culture is performed by performing incubation such that the temperature of each of the wells in the culture plate 18 is in the vicinity of the set temperature. Then, while performing the incubation, the bacteria included in each of the wells are monitored through the microscopic observation optical system. The microscopic observation (monitoring) may be performed for a set period of time from the start of the incubation till the end thereof by continuously monitoring the state of bacterial growth. Otherwise, a suitable time may be set and monitoring is performed every set time thereof so as to be able to be compared with the monitored result at the time of starting the incubation. In addition, similar to the bacteriological test apparatus in the related art, the turbidity of each of the wells may be measured through the turbidity measurement optical system while incubating the culture plate 18. The measured result may be compared with the monitored result of the microscopic observation optical system. FIGS. 10A to 13D are diagrams illustrating the results obtained by applying the present invention. […]

CC1(C)S[C@@H]2[C@H](NC(=O)[C@H](N)c3ccccc3)C(=O)N2[C@H]1C(=O)O [ampicillin]
areas of the E. coli in the images (E. coli (ATCC25922); ampicillin 2 μg/mL, FIG. 19 graph (ii)): increased with the lapse of time
growth of the E. coli in images (E. coli (ATCC25922); ampicillin 2 μg/mL, after 24 hours, FIG. 17C): grew after 24 hours
shape of the E. coli in images (E. coli (ATCC25922); ampicillin 2 μg/mL, after three hours, FIG. 17B): elongated states
areas of the E. coli in the images (E. coli (ATCC25922); ampicillin 16 μg/mL, FIG. 19 graph (iii)): seldom increased
growth of the E. coli in images (E. coli (ATCC25922); ampicillin 16 μg/mL, FIGS. 18A-18C): did not grow without being elongated

Cc1nnc(SCC2=C(C(=O)O)N3C(=O)[C@@H](NC(=O)Cn4cnnn4)[C@H]3SC2)s1 [cefazolin]
growth of the E coli in images (E coli (ATCC35218); cefazolin 0.5 μg/mL, FIG. 21B): grew after three hours
bacterial number in a microscopic image (E coli (ATCC35218); cefazolin 0.5 μg/mL): increased through growth
average value of the areas per one bacterium (E coli (ATCC35218); cefazolin 0.5 μg/mL, compared to no antibacterial agent): the area increased
average value of the areas per one bacterium (E coli (ATCC35218); cefazolin 1 μg/mL): further increased
growth of the E coli in images (E coli (ATCC35218); cefazolin 1 μg/mL, FIG. 21C): did not quite grow after three hours and was elongated
bacterial number in a microscopic image (E coli (ATCC35218); cefazolin 1 μg/mL): did not quite grow
average value of the areas per one bacterium (E coli (ATCC35218); cefazolin 2 μg/mL): further increased
growth of the E coli in images (E coli (ATCC35218); cefazolin 2 μg/mL, FIG. 21D): did not quite grow after three hours and was elongated
bacterial number in a microscopic image (E coli (ATCC35218); cefazolin 2 μg/mL): did not quite grow
perimeter length per one bacterium (E coli (ATCC35218); elongated bacteria, concentration not given, FIG. 22D): increased
circularity per one bacterium (E coli (ATCC35218); elongated bacteria, concentration not given, FIG. 22E): lowered
solidity per one bacterium (E coli (ATCC35218); elongated bacteria, concentration not given, FIG. 22F): lowered

C[C@H]1COc2c(N3CCN(C)CC3)c(F)cc3c(=O)c(C(=O)O)cn1c23 [levofloxacin]
MIC [1]: 1 µg/mL (≈ 2.77 µM)
